Measured values from patent publication US9833497B2, “Human originated EGF domain proteins and use of the same” (CHENGDU SOURCEBIO LIMITED-LIABILITY COMPANY, priority 2013, dated 2017).

Experiments:
Assay type in all cases: cell-based
E. coli DH5α = assay: Antibacterial activity: MIC and growth curve against E. coli DH5α in 96-well plate; settings: minimal inhibitory concentration against E. coli DH5α; 96-well plate, 5×10^5 CFU/mL, 37° C., judged after 8 h
In short: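 MIC taken as lowest protein level with no bacterial growth, tracked by A600 every 30 min during 37 °C, 175 rpm culture. Two-fold protein series 50-12.5 μg/mL final, triplicate wells, against 5×10^5 CFU/mL of LB-washed mid-log cells.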

Klebsiella pneumonia = assay: MIC against Gram-negative bacteria: Klebsiella pneumonia; settings: for MIC / MIC (μg/mL) K. pneumonia: K. pneumonia
In short: (§1)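 Purified recombinant human EGF domain proteins are tested by broth dilution in LB against a 5×10^5 CFU/mL inoculum, with two-fold serial dilutions run in triplicate. Plates are incubated at 37° C with shaking, and the MIC is read as the lowest protein concentration without growth.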

Proteus vulgaris = assay: MIC against Gram-negative bacteria: Proteus vulgaris; settings: for MIC / MIC (μg/mL) P. vulgaris: P. vulgaris
In short: as §1

Proteus mirabilis = assay: MIC against Gram-negative bacteria: Proteus mirabilis; settings: for MIC / MIC (μg/mL) P. mirabilis: P. mirabilis
In short: as §1

Citrobacter diversus = assay: MIC against Gram-negative bacteria: Citrobacter diversus; settings: for MIC / MIC (μg/mL) C. diversus: C. diversus
In short: as §1

Aeromonas hydrophila = assay: MIC against Gram-negative bacteria: Aeromonas hydrophila; settings: for MIC / MIC (μg/mL) A. hydrophila: A. hydrophila
In short: as §1

Pseudomonas aeruginosa = assay: MIC against Gram-negative bacteria: Pseudomonas aeruginosa; settings: for MIC / MIC (μg/mL) P. aeruginosa: P. aeruginosa
In short: as §1

E. coli BL21 = assay: MIC against Gram-negative bacteria: E. coli BL21
In short: as §1

Serratia marcescens = assay: MIC against Gram-negative bacteria: Serratia marcescens; settings: for MIC / MIC (μg/mL) S. marcescens: S. marcescens
In short: as §1

Moraxella catarrhalis = assay: MIC against Gram-negative bacteria: Moraxella catarrhalis; settings: for MIC / MIC (μg/mL) M. catarrhalis: M. catarrhalis
In short: as §1

Enterobacter cloacae = assay: MIC against Gram-negative bacteria: Enterobacter cloacae; settings: for MIC / MIC (μg/mL) E. cloacae: E. cloacae
In short: as §1

[1] = 10 h cultivation at 37° C., 5×10^5 CFU/mL
[2] = E. coli BL21, 10 h cultivation at 37° C., 5×10^5 CFU/mL
[3] = 96-well plate, 5×10^5 CFU/mL, 37° C., 10 h

Substance: PRT430 (DIDECAQGAGILCTFRCLNVPGSYQCACPEQGYTMTANGRSCK; listed as Homo sapiens)
- MIC (E. coli DH5α): 12.5 µg/mL
- MIC (Klebsiella pneumonia; [1]): 25 µg/mL
- MIC (Proteus vulgaris; [1]): 50 µg/mL
- MIC (Proteus mirabilis; [1]): 12.5 µg/mL
- MIC (Citrobacter diversus; [1]): 50 µg/mL
- MIC (Aeromonas hydrophila; [1]): 25 µg/mL
- MIC (Pseudomonas aeruginosa; [1]): 50 µg/mL
- MIC (E. coli BL21; [2]): 25 µg/mL
- MIC (Serratia marcescens; [1]): 12.5 µg/mL
- MIC (Moraxella catarrhalis; [1]): 25 µg/mL
- MIC (Enterobacter cloacae; [1]): 12.5 µg/mL

Substance: PRT416 (DVDECAPPAEPCGKGHRCVNSPGSFRCECKTGYYFDGISRMCV; listed as Homo sapiens)
- MIC (E. coli DH5α): 50 µg/mL
- MIC (Klebsiella pneumonia; [1]): 25 µg/mL
- MIC (Proteus vulgaris; [1]): 25 µg/mL
- MIC (Proteus mirabilis; [1]): 50 µg/mL
- MIC (Citrobacter diversus; [1]): 12.5 µg/mL
- MIC (Aeromonas hydrophila; [1]): 25 µg/mL
- MIC (Pseudomonas aeruginosa; [1]): 12.5 µg/mL
- MIC (E. coli BL21; [2]): 25 µg/mL
- MIC (Serratia marcescens; [1]): 12.5 µg/mL
- MIC (Moraxella catarrhalis; [1]): 25 µg/mL
- MIC (Enterobacter cloacae; [1]): 50 µg/mL

Substance: PRT253 (DYCSQNTCLNGGKCSWTHGAGYVCKCPPQFSGKHCE; listed as Homo sapiens)
- MIC (E. coli DH5α): 12.5 µg/mL
- MIC (μg/mL) K. pneumonia (Klebsiella pneumonia; [1]): 25 µg/mL
- MIC (μg/mL) P. vulgaris (Proteus vulgaris; [1]): 25 µg/mL
- MIC (μg/mL) P. mirabilis (Proteus mirabilis; [1]): 12.5 µg/mL
- MIC (μg/mL) C. diversus (Citrobacter diversus; [1]): 12.5 µg/mL
- MIC (μg/mL) A. hydrophila (Aeromonas hydrophila; [1]): 25 µg/mL
- MIC (μg/mL) P. aeruginosa (Pseudomonas aeruginosa; [1]): 12.5 µg/mL
- MIC (μg/mL) E. coli BL21 (E. coli BL21; [2]): 25 µg/mL
- MIC (μg/mL) S. marcescens (Serratia marcescens; [1]): 12.5 µg/mL
- MIC (μg/mL) M. catarrhalis (Moraxella catarrhalis; [1]): 25 µg/mL
- MIC (μg/mL) E. cloacae (Enterobacter cloacae; [1]): 12.5 µg/mL

Substance: PRT1404 (RAACPVLCSGNGQYSKGRCLCFSGWKGTECD; listed as Homo sapiens)
- MIC (E. coli DH5α): 12.5 µg/mL
- MIC against K. pneumonia (Klebsiella pneumonia; Klebsiella pneumonia, 5×10^5 CFU/mL, 10 h cultivation at 37° C.): 25 µg/mL
- MIC against P. vulgaris (Proteus vulgaris; Proteus vulgaris, 5×10^5 CFU/mL, 10 h cultivation at 37° C.): 25 µg/mL
- MIC against P. mirabilis (Proteus mirabilis; Proteus mirabilis, 5×10^5 CFU/mL, 10 h cultivation at 37° C.): 12.5 µg/mL
- MIC against C. diversus (Citrobacter diversus; Citrobacter diversus, 5×10^5 CFU/mL, 10 h cultivation at 37° C.): 50 µg/mL
- MIC against A. hydrophila (Aeromonas hydrophila; Aeromonas hydrophila, 5×10^5 CFU/mL, 10 h cultivation at 37° C.): 25 µg/mL
- MIC against P. aeruginosa (Pseudomonas aeruginosa; Pseudomonas aeruginosa, 5×10^5 CFU/mL, 10 h cultivation at 37° C.): 50 µg/mL
- MIC against E. coli BL21 (E. coli BL21; E. coli BL21, 5×10^5 CFU/mL, 10 h cultivation at 37° C.): 25 µg/mL
- MIC against S. marcescens (Serratia marcescens; Serratia marcescens, 5×10^5 CFU/mL, 10 h cultivation at 37° C.): 50 µg/mL
- MIC against M. catarrhalis (Moraxella catarrhalis; Moraxella catarrhalis, 5×10^5 CFU/mL, 10 h cultivation at 37° C.): 25 µg/mL
- MIC against E. cloacae (Enterobacter cloacae; Enterobacter cloacae, 5×10^5 CFU/mL, 10 h cultivation at 37° C.): 12.5 µg/mL

Substance: PRT735 (GEENCNVNNGGCAQKCQMVRGAVQCTCHTGYRLTEDGHTCQ; listed as Homo sapiens)
- MIC (E. coli DH5α): 12.5 µg/mL
- MIC K. pneumonia (Klebsiella pneumonia; [3]): 25 µg/mL
- MIC P. vulgaris (Proteus vulgaris; [3]): 50 µg/mL
- MIC P. mirabilis (Proteus mirabilis; [3]): 12.5 µg/mL
- MIC C. diversus (Citrobacter diversus; [3]): 50 µg/mL
- MIC A. hydrophila (Aeromonas hydrophila; [3]): 25 µg/mL
- MIC P. aeruginosa (Pseudomonas aeruginosa; [3]): 12.5 µg/mL
- MIC E. coli BL21 (E. coli BL21; [3]): 50 µg/mL
- MIC S. marcescens (Serratia marcescens; [3]): 25 µg/mL
- MIC M. catarrhalis (Moraxella catarrhalis; [3]): 25 µg/mL
- MIC E. cloacae (Enterobacter cloacae; [3]): 12.5 µg/mL

Substance: PRT256 (CHLHARCVSQEGVARCRCLDGFEGDGFSC; listed as Homo sapiens)
- MIC (E. coli DH5α): 25 µg/mL
- MIC (μg/mL) K. pneumonia (Klebsiella pneumonia; [1]): 12.5 µg/mL
- MIC (μg/mL) P. vulgaris (Proteus vulgaris; [1]): 12.5 µg/mL
- MIC (μg/mL) P. mirabilis (Proteus mirabilis; [1]): 25 µg/mL
- MIC (μg/mL) C. diversus (Citrobacter diversus; [1]): 25 µg/mL
- MIC (μg/mL) A. hydrophila (Aeromonas hydrophila; [1]): 12.5 µg/mL
- MIC (μg/mL) P. aeruginosa (Pseudomonas aeruginosa; [1]): 25 µg/mL
- MIC (μg/mL) E. coli BL21 (E. coli BL21; [2]): 12.5 µg/mL
- MIC (μg/mL) S. marcescens (Serratia marcescens; [1]): 25 µg/mL
- MIC (μg/mL) M. catarrhalis (Moraxella catarrhalis; [1]): 12.5 µg/mL
- MIC (μg/mL) E. cloacae (Enterobacter cloacae; [1]): 25 µg/mL

Substance: PRT198 (CQPKTCNMRGICNNKQHCHCNHEWAPPYC; listed as Homo sapiens)
- MIC (E. coli DH5α): 12.5 µg/mL
- MIC (μg/mL) K. pneumonia (Klebsiella pneumonia; [1]): 50 µg/mL
- MIC (μg/mL) P. vulgaris (Proteus vulgaris; [1]): 25 µg/mL
- MIC (μg/mL) P. mirabilis (Proteus mirabilis; [1]): 12.5 µg/mL
- MIC (μg/mL) C. diversus (Citrobacter diversus; [1]): 50 µg/mL
- MIC (μg/mL) A. hydrophila (Aeromonas hydrophila; [1]): 25 µg/mL
- MIC (μg/mL) P. aeruginosa (Pseudomonas aeruginosa; [1]): 12.5 µg/mL
- MIC (μg/mL) E. coli BL21 (E. coli BL21; [2]): 12.5 µg/mL
- MIC (μg/mL) S. marcescens (Serratia marcescens; [1]): 50 µg/mL
- MIC (μg/mL) M. catarrhalis (Moraxella catarrhalis; [1]): 25 µg/mL
- MIC (μg/mL) E. cloacae (Enterobacter cloacae; [1]): 12.5 µg/mL

Substance: PRT730 (NGNSCSDFNGGCTHECVQEPFGAKCLCPLGFLLANDSKTCE; listed as Homo sapiens)
- MIC (E. coli DH5α): 25 µg/mL
- MIC K. pneumonia (Klebsiella pneumonia; [3]): 25 µg/mL
- MIC P. vulgaris (Proteus vulgaris; [3]): 12.5 µg/mL
- MIC P. mirabilis (Proteus mirabilis; [3]): 50 µg/mL
- MIC C. diversus (Citrobacter diversus; [3]): 12.5 µg/mL
- MIC A. hydrophila (Aeromonas hydrophila; [3]): 25 µg/mL
- MIC P. aeruginosa (Pseudomonas aeruginosa; [3]): 25 µg/mL
- MIC E. coli BL21 (E. coli BL21; [3]): 12.5 µg/mL
- MIC S. marcescens (Serratia marcescens; [3]): 25 µg/mL
- MIC M. catarrhalis (Moraxella catarrhalis; [3]): 25 µg/mL
- MIC E. cloacae (Enterobacter cloacae; [3]): 50 µg/mL

Substance: PRT997 (EVDECLSDPCPVGASCLDLPGAFFCLCPSGFTGQLCE; listed as Homo sapiens)
- MIC (E. coli DH5α): 12.5 µg/mL
- MIC (Klebsiella pneumonia; 10 h cultivation at 37° C.): 12.5 µg/mL
- MIC (Proteus vulgaris; 10 h cultivation at 37° C.): 50 µg/mL
- MIC (Proteus mirabilis; 10 h cultivation at 37° C.): 25 µg/mL
- MIC (Citrobacter diversus; 10 h cultivation at 37° C.): 50 µg/mL
- MIC (Aeromonas hydrophila; 10 h cultivation at 37° C.): 12.5 µg/mL
- MIC (Pseudomonas aeruginosa; 10 h cultivation at 37° C.): 12.5 µg/mL
- MIC (E. coli BL21; E. coli BL21, 10 h cultivation at 37° C.): 12.5 µg/mL
- MIC (Serratia marcescens; 10 h cultivation at 37° C.): 25 µg/mL
- MIC (Moraxella catarrhalis; 10 h cultivation at 37° C.): 12.5 µg/mL
- MIC (Enterobacter cloacae; 10 h cultivation at 37° C.): 50 µg/mL

Substance: PRT447 (DVDECAQALHDRRPSQDCHNLSGSYQCTCPDGYRKIGPE; listed as Homo sapiens)
- MIC (E. coli DH5α): 50 µg/mL
- MIC against K. pneumonia (Klebsiella pneumonia; [3]): 25 µg/mL
- MIC against P. vulgaris (Proteus vulgaris; [3]): 12.5 µg/mL
- MIC against P. mirabilis (Proteus mirabilis; [3]): 50 µg/mL
- MIC against C. diversus (Citrobacter diversus; [3]): 12.5 µg/mL
- MIC against A. hydrophila (Aeromonas hydrophila; [3]): 25 µg/mL
- MIC against P. aeruginosa (Pseudomonas aeruginosa; [3]): 12.5 µg/mL
- MIC against E. coli BL21 (E. coli BL21; [3]): 25 µg/mL
- MIC against S. marcescens (Serratia marcescens; [3]): 50 µg/mL
- MIC against M. catarrhalis (Moraxella catarrhalis; [3]): 25 µg/mL
- MIC against E. cloacae (Enterobacter cloacae; [3]): 50 µg/mL

Substance: PRT841 (PEDECANGHHDCNETQNCHDQPHGYECSCKTGYTMDNMT; listed as Homo sapiens)
- MIC (E. coli DH5α): 12.5 µg/mL
- MIC (μg/mL) K. pneumonia (Klebsiella pneumonia; [1]): 50 µg/mL
- MIC (μg/mL) P. vulgaris (Proteus vulgaris; [1]): 50 µg/mL
- MIC (μg/mL) P. mirabilis (Proteus mirabilis; [1]): 12.5 µg/mL
- MIC (μg/mL) C. diversus (Citrobacter diversus; [1]): 12.5 µg/mL
- MIC (μg/mL) A. hydrophila (Aeromonas hydrophila; [1]): 50 µg/mL
- MIC (μg/mL) P. aeruginosa (Pseudomonas aeruginosa; [1]): 12.5 µg/mL
- MIC (μg/mL) E. coli BL21 (E. coli BL21; [2]): 25 µg/mL
- MIC (μg/mL) S. marcescens (Serratia marcescens; [1]): 12.5 µg/mL
- MIC (μg/mL) M. catarrhalis (Moraxella catarrhalis; [1]): 50 µg/mL
- MIC (μg/mL) E. cloacae (Enterobacter cloacae; [1]): 12.5 µg/mL
